The values below come from patent US11458433B2, “Absorbent and process for selectively removing hydrogen sulfide” (BASF SE, priority 2017, dated 2022).

Holding throughout (type): physicochemical
Data set [1] can be described thus: Volatility of amines in 30% by weight aqueous solutions (condensate analysis). The note with it: 30 wt.-% amine + 70 wt.-% H2O, 200 mL, 50° C., 30 L (STP)/h N2, 8 h; average of three experiments. How it is done: The volatility of several amines in 30% by weight aqueous solutions was examined.
The glass cylinder was regulated to 50° C., and 200 mL of the absorbent were introduced in each case. Over an experimental duration of 8 h, 30 L (STP)/h of N2 were passed through the absorbent at ambient pressure.
The experiments were repeated three times.

Data set [2] can be described thus: Phase separation: critical solution temperature in miscibility unit. The note with it: 36 wt.-% aqueous solution; measurable up to 140° C. How it is done: To determine the critical solution temperature, a miscibility unit was used. This unit allows the measurement of the temperature at which phase separation occurs (“critical solution temperature”).
The miscibility unit comprised a sight glass vessel equipped with a pressure gauge and a thermocouple. A heater was used to supply heat to the vessel. Measurements were possible up to a temperature of 140° C. The possible phase separation could be visually observed via the sight glass. In the following table, the measured critical solution temperatures are shown for different aqueous amine mixtures.

Data set [3] can be described thus: pKA determination by titration with aqueous hydrochloric acid. Particulars: aqueous amine solution; 20° C.; 0.005 mol/L amine in water titrated with 0.1 mol/L HCl. Here is the method:
The pKa values of MDEA and TBAPD were determined by means of titration. An aqueous solution with an amine concentration of 0.005 mol/L of amine was used and titrated with aqueous hydrochloric acid (0.1 mol/L) at 20° C.

With `COCCOCCOCCNC(C)(C)C` [M3ETB, (2-(2-(2-tert-butylaminoethoxy)ethoxy)ethyl) methyl ether], in data set [1], the Amine in condensate is listed as 0.7 wt.-%, the Condensate was 30.1 mL and the Water in condensate is 99.2 wt.-%. For the same compound, in data set [2], the “Critical Solution Temperature” value turned out to be 107° ° C.

Take `CC(C)(C)NCCOCCO` [TBAEE, 2-(2-tert-butylaminoethoxy)ethanol]: in data set [1], the Amine in condensate is 0.7 wt.-%, the Condensate stood at 30.0 mL and the Water in condensate stood at 99.3 wt.-%.

By pKa is commonly meant the pH at which an ionisable group is half protonated. Take `CC(C)(C)NCCN1CCCC1=O` [TBAEPY, 1-[2-(tert-butylamino)ethyl]pyrrolidin-2-one]: in data set [1], the Amine in condensate turned out to be 0.2 wt.-%, the Condensate is reported as 28.8 mL and the Water in condensate is listed as 99.5 wt.-%. Moreover, the “Critical Solution Temperature” value in data set [2] is “—** (no phase separation observed at up to 140° C.)”. This compound showed a pKa in data set [3] of 9.6.

Turning to “tert-butylaminoethoxyethylmorpholine [TBAEEM]”, in data set [1], the Amine in condensate is recorded as 0.2 wt.-%, the Condensate is 30.5 mL and the Water in condensate turned out to be 99.6 wt.-%. The “Critical Solution Temperature” value in data set [2] is on record as 131° ° C.

tert-butylaminoethylmorpholine [TBAEM]: in data set [1], the Amine in condensate is given as 1.6 wt.-%, the Condensate is given as 34.8 mL and the Water in condensate was found to be 98.0 wt.-%.
